Data on 17 compounds can be found in PubChem BioAssay AID248 (DTP/NCI, 2004).

Structures are written as SMILES. Where “and” joins values, the source holds several entries; their conditions need not be identical. Equal values may be shown once. Toxic doses and inconclusive results are not listed.

In this assay the test system is L1210 leukemia ip in BDF1 mice, survival T/C. The assay is described as follows: NCI In Vivo Anticancer Drug Screen. Data for tumor model L1210 Leukemia (intraperitoneal) in B6D2F1 (BDF1) mice. The settings on record: endpoint: mean survival time, higher = longer survival. In short, it runs like this:
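Tumor cells were implanted, animals were treated, and survival was followed. The result divides the treated measurement by the vehicle-control measurement.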

The mark [1] stands for this setting: dose: 100.0 mg/kg/injection, schedule: Q01DX009 (ip), vehicle: Klucel (hydroxypropylcellulose) (HPC).
[2] abbreviates: dose: 100.0 mg/kg/injection, schedule: Q04DX003 (ip), vehicle: Klucel (hydroxypropylcellulose) (HPC).
[3] abbreviates: dose: 200.0 mg/kg/injection, schedule: Q01DX009 (ip), vehicle: Klucel (hydroxypropylcellulose) (HPC).
Setting [4] is: dose: 200.0 mg/kg/injection, schedule: Q04DX003 (ip), vehicle: Klucel (hydroxypropylcellulose) (HPC).
[5] abbreviates: dose: 400.0 mg/kg/injection, schedule: Q01DX009 (ip), vehicle: Klucel (hydroxypropylcellulose) (HPC).
The mark [6] stands for this setting: dose: 400.0 mg/kg/injection, schedule: Q04DX003 (ip), vehicle: Klucel (hydroxypropylcellulose) (HPC).
Setting [7] is: dose: 100.0 mg/kg/injection, schedule: Q01DX001 (ip), vehicle: saline.
[8] abbreviates: dose: 200.0 mg/kg/injection, schedule: Q01DX001 (ip), vehicle: saline.
Setting [9] is: dose: 400.0 mg/kg/injection, schedule: Q01DX001 (ip), vehicle: saline.
The mark [10] stands for this setting: dose: 100.0 mg/kg/injection, schedule: Q01DX009 (ip), vehicle: saline.
Setting [11] is: dose: 100.0 mg/kg/injection, schedule: Q04DX003 (ip), vehicle: saline.
Where [12] appears, read: dose: 200.0 mg/kg/injection, schedule: Q04DX003 (ip), vehicle: saline.
[13] abbreviates: dose: 400.0 mg/kg/injection, schedule: Q04DX003 (ip), vehicle: saline.
[14] abbreviates: dose: 50.0 mg/kg/injection, schedule: Q01DX001 (ip), vehicle: carboxymethylcellulose (CMC).
Setting [15] is: dose: 100.0 mg/kg/injection, schedule: Q01DX001 (ip), vehicle: carboxymethylcellulose (CMC).
Where [16] appears, read: dose: 200.0 mg/kg/injection, schedule: Q01DX001 (ip), vehicle: carboxymethylcellulose (CMC).

In the case of `CCC(=O)OC1CC2C3CCC4=CC(=O)CCC4(C)C3CCC2(C)C1OC(=O)CC` (stereo unspecified), the T/C is, setting by setting: under setting [1], 98 % of control; under setting [2], 95 % of control; under setting [3], 98 % of control; under setting [4], 95 % of control; under setting [5], 97 % of control; under setting [6], 101 % of control.

For `CC1=CC2C(C(C)C)CC1C1C(=O)OC(=O)C21` (stereo unspecified), the T/C reads like this: (dose: 100.0 mg/kg/injection, schedule: Q04DX002 (ip), vehicle: Klucel (hydroxypropylcellulose) (HPC)) 102 % of control; (dose: 200.0 mg/kg/injection, schedule: Q04DX002 (ip), vehicle: Klucel (hydroxypropylcellulose) (HPC)) 100 % of control.

Take `COC(=O)C1(C)COP(=O)(Nc2ccc(Br)cc2)OC1` (stereo unspecified): the T/C by setting is: under setting [7], 96 % of control; under setting [8], 86 % of control; under setting [9], 91 % of control.

Regarding `OC(COc1c(Cl)c(Cl)c(Cl)c(Cl)c1Cl)CN1CCN(c2ccccc2Cl)CC1` (stereo unspecified), the T/C under setting [7] was 95 % of control, the T/C under setting [8] is 92 % of control and the T/C under setting [9] was 92 % of control.

For `[N-]=[N+]=NCC1OCOC1C1OCOC1CN=[N+]=[N-]` (stereo unspecified), the T/C was 96 % of control (dose: 25.0 mg/kg/injection, schedule: Q01DX009 (ip), vehicle: saline); 98 % of control (dose: 50.0 mg/kg/injection, schedule: Q01DX009 (ip), vehicle: saline); 102 % of control under setting [10].

Consider `CSC(c1ccccc1Cl)=[N+]1CCCCC1`, for which the T/C under setting [2] was 104 % of control, the T/C under setting [4] was 88 % of control and the T/C under setting [6] was 93 % of control.

`CC(=O)OCCSCCc1ccccc1`: the T/C runs as follows: (dose: 62.5 mg/kg/injection, schedule: Q01DX009 (ip), vehicle: saline with Tween-80) 97 % of control; (dose: 125.0 mg/kg/injection, schedule: Q01DX009 (ip), vehicle: saline with Tween-80) 113 % of control; (dose: 250.0 mg/kg/injection, schedule: Q01DX009 (ip), vehicle: saline with Tween-80) 94 % of control.

As for `O=C1c2ccccc2C(=O)N1OCCCCCCON1C(=O)c2ccccc2C1=O`, the T/C reads like this: under setting [11], 92 % of control; under setting [12], 94 % of control; under setting [13], 97 % of control.

For the compound `CC(=O)OCC1OC(n2cc(C(F)(F)F)c(=O)[nH]c2=O)CC1OC(C)=O` (stereo unspecified), the T/C by setting is: (dose: 20.0 mg/kg/injection, schedule: Q01DX009 (oral), vehicle: saline) 116 % of control; (dose: 20.0 mg/kg/injection, schedule: Q01DX011 (ip), vehicle: saline) 116 % of control; (dose: 40.0 mg/kg/injection, schedule: Q01DX009 (oral), vehicle: saline) 116 % of control; (dose: 40.0 mg/kg/injection, schedule: Q01DX011 (ip), vehicle: saline) 118 % of control; (dose: 45.0 mg/kg/injection, schedule: Q01DX Z (oral), vehicle: saline) 105 % of control; (dose: 65.0 mg/kg/injection, schedule: Q01DX Z (oral), vehicle: saline) 87 % of control. The T/C by setting is: (dose: 80.0 mg/kg/injection, schedule: Q01DX009 (oral), vehicle: saline) 118 % of control; (dose: 80.0 mg/kg/injection, schedule: Q01DX011 (ip), vehicle: saline) 122 % of control; (dose: 100.0 mg/kg/injection, schedule: Q01DX Z (oral), vehicle: saline) 109 % of control; (dose: 150.0 mg/kg/injection, schedule: Q01DX011 (oral), vehicle: saline) 168 % of control; (dose: 160.0 mg/kg/injection, schedule: Q01DX009 (oral), vehicle: saline) 155 % of control; (dose: 160.0 mg/kg/injection, schedule: Q01DX011 (ip), vehicle: saline) 159 % of control. The T/C (dose: 300.0 mg/kg/injection, schedule: Q01DX011 (oral), vehicle: saline) was 153 % of control and the T/C (dose: 480.0 mg/kg/injection, schedule: Q01DX Z (ip), vehicle: saline) is 115 % of control.

Regarding `C/C(=N\NS(=O)(=O)c1ccccc1)C(C)C`, the T/C by setting is: (dose: 75.0 mg/kg/injection, schedule: Q01DX001 (ip), vehicle: saline) 101 % of control; (dose: 150.0 mg/kg/injection, schedule: Q01DX001 (ip), vehicle: saline) 98 % of control; (dose: 300.0 mg/kg/injection, schedule: Q01DX001 (ip), vehicle: saline) 96 % of control.

Regarding `CCN(CC)c1ccc(N=C2C=C(C(=O)Nc3cccc(Cl)c3)C(=O)c3ccccc32)c(C)c1`, the T/C runs as follows: (dose: 100.0 mg/kg/injection, schedule: Q01DX001 (ip), vehicle: other) 92 % of control; (dose: 200.0 mg/kg/injection, schedule: Q01DX001 (ip), vehicle: other) 92 % of control; (dose: 400.0 mg/kg/injection, schedule: Q01DX001 (ip), vehicle: other) 96 % of control.

Consider `CCOC(=O)NC1CCC1NC(=O)OCC` (stereo unspecified), for which the T/C (dose: 100.0 mg/kg/injection, schedule: Q01DX009 (ip), vehicle: saline with Tween-80) is 95 % of control; the T/C (dose: 200.0 mg/kg/injection, schedule: Q01DX009 (ip), vehicle: saline with Tween-80) is 98 % of control; the T/C (dose: 400.0 mg/kg/injection, schedule: Q01DX009 (ip), vehicle: saline with Tween-80) is 91 % of control.

As to `CCc1ccccc1NC(=O)Nc1ccccc1C(N)=O`, the T/C was 87 % of control under setting [1], 93 % of control under setting [3] and 93 % of control under setting [5].

On to `CCCCCCCCCC(=O)N1CCCCC1C` (stereo unspecified), for which the T/C is, setting by setting: (dose: 25.0 mg/kg/injection, schedule: Q04DX002 (ip), vehicle: carboxymethylcellulose (CMC)) 97 % of control and 99 % of control; under setting [14], 93 % of control; (dose: 50.0 mg/kg/injection, schedule: Q01DX009 (ip), vehicle: carboxymethylcellulose (CMC)) 98 % of control and 103 % of control; (dose: 50.0 mg/kg/injection, schedule: Q04DX002 (ip), vehicle: carboxymethylcellulose (CMC)) 96 % of control and 97 % of control; (dose: 50.0 mg/kg/injection, schedule: Q04DX003 (ip), vehicle: carboxymethylcellulose (CMC)) 95 % of control; under setting [15], 93 % of control. Further, the T/C by setting is: (dose: 100.0 mg/kg/injection, schedule: Q01DX009 (ip), vehicle: carboxymethylcellulose (CMC)) 94 % of control and 100 % of control; (dose: 100.0 mg/kg/injection, schedule: Q04DX003 (ip), vehicle: carboxymethylcellulose (CMC)) 97 % of control; under setting [16], 96 % of control; (dose: 200.0 mg/kg/injection, schedule: Q01DX009 (ip), vehicle: carboxymethylcellulose (CMC)) 100 % of control and 104 % of control; (dose: 200.0 mg/kg/injection, schedule: Q04DX002 (ip), vehicle: carboxymethylcellulose (CMC)) 107 % of control and 92 % of control; (dose: 200.0 mg/kg/injection, schedule: Q04DX003 (ip), vehicle: carboxymethylcellulose (CMC)) 95 % of control. The T/C (dose: 400.0 mg/kg/injection, schedule: Q04DX002 (ip), vehicle: carboxymethylcellulose (CMC)) is 103 % of control and 90 % of control.

In the case of `CC(NC(=O)OCc1ccccc1)C(=O)ON1C(=O)CCC1=O` (stereo unspecified), the T/C is, setting by setting: under setting [7], 97 % of control; under setting [10], 95 % of control; under setting [11], 96 % of control; under setting [8], 102 % of control; (dose: 200.0 mg/kg/injection, schedule: Q01DX009 (ip), vehicle: saline) 93 % of control; under setting [12], 94 % of control. For the same compound, the T/C under setting [9] is 97 % of control; the T/C (dose: 400.0 mg/kg/injection, schedule: Q01DX009 (ip), vehicle: saline) was 88 % of control; the T/C under setting [13] is 96 % of control.

For the compound `CN1C(=O)NC(C)(CCOCc2ccccc2)C1=O` (stereo unspecified), the T/C under setting [14] is 96 % of control; the T/C under setting [15] is 107 % of control; the T/C under setting [16] was 100 % of control; the T/C (dose: 400.0 mg/kg/injection, schedule: Q01DX001 (ip), vehicle: carboxymethylcellulose (CMC)) was 100 % of control.

For `O=C(O)c1c(Cl)[nH]c2ccccc12`, the T/C (dose: 50.0 mg/kg/injection, schedule: Q04DX002 (ip), vehicle: saline with Tween-80) is 101 % of control; the T/C (dose: 100.0 mg/kg/injection, schedule: Q04DX002 (ip), vehicle: saline with Tween-80) was 97 % of control; the T/C (dose: 200.0 mg/kg/injection, schedule: Q04DX002 (ip), vehicle: saline with Tween-80) was 89 % of control.
